Measured values published in US6964949B2, “Pharmaceutical compositions for promoting the growth of gram-positive bacilli and increasing the acidity in the vagina and the use thereof” (Shanghai Jiao Da Onlly Co., Ltd., priority 2000, dated 2005).

Experiments:
[1] = test system: L. crispatus, C. albicans, C. tropicalis; test: Terconazole in Maltose Broth, Group 2 co-culture: turbidity and Gram-stained smear; assay type: cell-based; parameters: key to Turbidity, Group 2: ++: The cultural fluid was heavily turbid; +: The cultural fluid was turbid; +/−: The turbidity of the cultural fluid was not affirmative; key to Microbes (Gram-stained smear), Group 2: Lb: Lactobacilli; Candida; conditions: 18 hours, 37° C., candle jar
Protocol: (§1) • 1. Materials: • Maltose Broth: 10.0% maltose, 2.0% yeast extract, K2HPO4 0.5%, MgSO4 0.05%, MnSO40.1%, pH adjusted to 6.2, sterilized. • Anti-fungi drug: Terconazole • Clinically isolated Lactobacillus strains: Lactobacillus acidophilus, Lactobacillus crispatus, and Lactobacillus jensenii. Three lactobacillus suspensions were prepared separately from each of these three lactobacillus strains.
(§2) Clinically isolated Candida strains: Candida albicans and Candida tropicalis. Two Candidal suspensions were prepared separately from each of these two candida strains. • 2.
(§3) • There were six tubes in each group and each tube contained 2 ml Maltose Broth and different concentration of Terconazole, as shown in Table 1. • The turbidity values of three lactobacillus suspensions and two Candidal suspensions were tested by Turbidimeter and adjusted to 0.3. 50 ul of each prepared lactobacillus suspension and Candidal suspension were separately added into tubes according to Table 1. • All of these experimental tubes were put into candle jars as soon as the lactobacillus suspensions and candidal suspensions were added, and then incubated at 37° C. for 18 hours. • After 18 hours' incubation the turbidity of each tube was examined and Gram-stained smear of cultural fluid of corresponding tube was observed under microscopy to check microbes. Results

[2] = test system: C. albicans, C. tropicalis; test: Terconazole in Maltose Broth, Group 4 (Candidal group): turbidity and Gram-stained smear; assay type: cell-based, Candida albicans, Candida tropicalis; parameters: key to Turbidity, Group 4: ++: The cultural fluid was heavily turbid; +: The cultural fluid was turbid; +/−: The turbidity of the cultural fluid was not affirmative; conditions: 18 hours; for Turbidity, Group 4: 37° C., candle jar
Protocol: as §1, §2, §3

[3] = test system: L. jensenii, C. albicans, C. tropicalis; test: Terconazole in Maltose Broth, Group 3 co-culture: turbidity and Gram-stained smear; assay type: cell-based, Lactobacillus jensenii, Candida albicans, Candida tropicalis; parameters: key to Turbidity, Group 3: ++: The cultural fluid was heavily turbid; +: The cultural fluid was turbid; +/−: The turbidity of the cultural fluid was not affirmative; key to Microbes (Gram-stained smear), Group 3: Lb: Lactobacilli; Candida; conditions: 18 hours, 37° C., candle jar
Protocol: as §1, §2, §3

[4] = test system: L. acidophilus, C. albicans, C. tropicalis; test: Terconazole in Maltose Broth, Group 1 co-culture: turbidity and Gram-stained smear; assay type: cell-based; parameters: key to Turbidity, Group 1: ++: The cultural fluid was heavily turbid; +: The cultural fluid was turbid; +/−: The turbidity of the cultural fluid was not affirmative; key to Microbes (Gram-stained smear), Group 1: Lb: Lactobacilli; Candida; conditions: 18 hours, 37° C., candle jar
Protocol: as §1, §2, §3

[5] = test system: three Lactobacillus strains; test: Terconazole in Maltose Broth: growth of the three Lactobacillus strains (Groups 1-3); assay type: cell-based; conditions: 400 ug/ml of Terconazole, 18 hours
Protocol: as §1, §2, §3

[6] = test system: C. albicans, C. tropicalis; test: Fluconazole in Sucrose Broth, Group 4 (Candidal group): turbidity and Gram-stained smear; assay type: cell-based, Candida albicans, Candida tropicalis; parameters: key to Turbidity, Group 4: ++: The cultural fluid was heavily turbid; +: The cultural fluid was turbid; +/−: The turbidity of the cultural fluid was not affirmative; conditions: 18 hours; for Turbidity, Group 4: 37° C., candle jar
Protocol: (§4) • 1. Materials: • Sucrose Broth: 10.0% sucrose, 2.0% yeast extract, K2HPO40.5%, MgSO40.05%, MnSO40.1%, pH adjusted to 6.2, sterilized. • Anti-fungi drug: Fluconazole • Clinically isolated Lactobacillus strains: Lactobacillus acidophilus, Lactobacillus crispatus, and Lactobacillus jensenii. Three lactobacillus suspensions were prepared separately from each of these three lactobacillus strains. • Clinically isolated Candida strains: Candida albicans and Candida tropicalis. Two Candidal suspensions were prepared separately from each of these two candida strains. • 2.
as §3, with “2ml Sucrose” for “2 ml Maltose”, “Fluconazole,” for “Terconazole,”

[7] = test system: L. jensenii, C. albicans, C. tropicalis; test: Fluconazole in Sucrose Broth, Group 3 co-culture: turbidity and Gram-stained smear; assay type: cell-based, Lactobacillus jensenii, Candida albicans, Candida tropicalis; parameters: key to Turbidity, Group 3: ++: The cultural fluid was heavily turbid; +: The cultural fluid was turbid; +/−: The turbidity of the cultural fluid was not affirmative; key to Microbes (Gram-stained smear), Group 3: Lb: Lactobacilli; Candida; conditions: 18 hours, 37° C., candle jar
Protocol: as §4
as §3, with “2ml Sucrose” for “2 ml Maltose”, “Fluconazole,” for “Terconazole,”

[8] = test system: three Lactobacillus strains; test: Fluconazole in Sucrose Broth: growth of the three Lactobacillus strains (Groups 1-3); assay type: cell-based; conditions: 400 ug/ml of Fluconazole, 18 hours
Protocol: as §4
as §3, with “2ml Sucrose” for “2 ml Maltose”, “Fluconazole,” for “Terconazole,”

[9] = test system: L. acidophilus, C. albicans, C. tropicalis; test: Fluconazole in Sucrose Broth, Group 1 co-culture: turbidity and Gram-stained smear; assay type: cell-based; parameters: key to Turbidity, Group 1: ++: The cultural fluid was heavily turbid; +: The cultural fluid was turbid; +/−: The turbidity of the cultural fluid was not affirmative; key to Microbes (Gram-stained smear), Group 1: Lb: Lactobacilli; Candida; conditions: 18 hours, 37° C., candle jar
Protocol: as §4
as §3, with “2ml Sucrose” for “2 ml Maltose”, “Fluconazole,” for “Terconazole,”

[10] = test system: L. crispatus, C. albicans, C. tropicalis; test: Fluconazole in Sucrose Broth, Group 2 co-culture: turbidity and Gram-stained smear; assay type: cell-based; parameters: key to Turbidity, Group 2: ++: The cultural fluid was heavily turbid; +: The cultural fluid was turbid; +/−: The turbidity of the cultural fluid was not affirmative; key to Microbes (Gram-stained smear), Group 2: Lb: Lactobacilli; Candida; conditions: 18 hours, 37° C., candle jar
Protocol: as §4
as §3, with “2ml Sucrose” for “2 ml Maltose”, “Fluconazole,” for “Terconazole,”

## CC(C)N1CCN(c2ccc(OCC3COC(Cn4cncn4)(c4ccc(Cl)cc4Cl)O3)cc2)CC1 (centres unmarked) [Terconazole]
[1]; Terconazole 25 ug/ml
  Microbes (Gram-stained smear), Group 2: Lb
  Turbidity, Group 2: ++
[1]; Terconazole 50 ug/ml
  Microbes (Gram-stained smear), Group 2: Lb
  Turbidity, Group 2: ++
[1]; Terconazole 100 ug/ml
  Microbes (Gram-stained smear), Group 2: Lb
  Turbidity, Group 2: ++
[1]; Terconazole 200 ug/ml
  Microbes (Gram-stained smear), Group 2: Lb
  Turbidity, Group 2: ++
[1]; Terconazole 400 ug/ml
  Microbes (Gram-stained smear), Group 2: Lb
  Turbidity, Group 2: ++
[2]; 25 ug/ml or greater concentration of Terconazole
  growth of the two Candidal strains: inhibited the growth
[2]; Terconazole 25 ug/ml
  Turbidity, Group 4: +/−
[2]; Terconazole 50 ug/ml
  Turbidity, Group 4: +/−
[2]; Terconazole 100 ug/ml
  Turbidity, Group 4: +/−
[2]; Terconazole 200 ug/ml
  Turbidity, Group 4: +/−
[2]; Terconazole 400 ug/ml
  Turbidity, Group 4: +/−
[3]; Terconazole 25 ug/ml
  Microbes (Gram-stained smear), Group 3: Lb
  Turbidity, Group 3: ++
[3]; Terconazole 50 ug/ml
  Microbes (Gram-stained smear), Group 3: Lb
  Turbidity, Group 3: ++
[3]; Terconazole 100 ug/ml
  Microbes (Gram-stained smear), Group 3: Lb
  Turbidity, Group 3: ++
[3]; Terconazole 200 ug/ml
  Microbes (Gram-stained smear), Group 3: Lb
  Turbidity, Group 3: ++
[3]; Terconazole 400 ug/ml
  Microbes (Gram-stained smear), Group 3: Lb
  Turbidity, Group 3: ++
[4]; Terconazole 25 ug/ml
  Microbes (Gram-stained smear), Group 1: Lb
  Turbidity, Group 1: ++
[4]; Terconazole 50 ug/ml
  Microbes (Gram-stained smear), Group 1: Lb
  Turbidity, Group 1: ++
[4]; Terconazole 100 ug/ml
  Microbes (Gram-stained smear), Group 1: Lb
  Turbidity, Group 1: ++
[4]; Terconazole 200 ug/ml
  Microbes (Gram-stained smear), Group 1: Lb
  Turbidity, Group 1: ++
[4]; Terconazole 400 ug/ml
  Microbes (Gram-stained smear), Group 1: Lb
  Turbidity, Group 1: ++
[5]
  growth of three Lactobacillus strains: didn't inhibit the growth

## OC(Cn1cncn1)(Cn1cncn1)c1ccc(F)cc1F [Fluconazole]
[6]; 25 ug/ml or greater concentration of Fluconazole
  growth of the two Candidal strains: inhibited the growth
[6]; Fluconazole 25 ug/ml
  Turbidity, Group 4: +/−
[6]; Fluconazole 50 ug/ml
  Turbidity, Group 4: +/−
[6]; Fluconazole 100 ug/ml
  Turbidity, Group 4: +/−
[6]; Fluconazole 200 ug/ml
  Turbidity, Group 4: +/−
[6]; Fluconazole 400 ug/ml
  Turbidity, Group 4: +/−
[7]; Fluconazole 25 ug/ml
  Microbes (Gram-stained smear), Group 3: Lb
  Turbidity, Group 3: ++
[7]; Fluconazole 50 ug/ml
  Microbes (Gram-stained smear), Group 3: Lb
  Turbidity, Group 3: ++
[7]; Fluconazole 100 ug/ml
  Microbes (Gram-stained smear), Group 3: Lb
  Turbidity, Group 3: ++
[7]; Fluconazole 200 ug/ml
  Microbes (Gram-stained smear), Group 3: Lb
  Turbidity, Group 3: ++
[7]; Fluconazole 400 ug/ml
  Microbes (Gram-stained smear), Group 3: Lb
  Turbidity, Group 3: ++
[8]
  growth of three Lactobacillus strains: didn't inhibit the growth
[9]; Fluconazole 25 ug/ml
  Microbes (Gram-stained smear), Group 1: Lb
  Turbidity, Group 1: ++
[9]; Fluconazole 50 ug/ml
  Microbes (Gram-stained smear), Group 1: Lb
  Turbidity, Group 1: ++
[9]; Fluconazole 100 ug/ml
  Microbes (Gram-stained smear), Group 1: Lb
  Turbidity, Group 1: ++
[9]; Fluconazole 200 ug/ml
  Microbes (Gram-stained smear), Group 1: Lb
  Turbidity, Group 1: ++
[9]; Fluconazole 400 ug/ml
  Microbes (Gram-stained smear), Group 1: Lb
  Turbidity, Group 1: ++
[10]; Fluconazole 25 ug/ml
  Microbes (Gram-stained smear), Group 2: Lb
  Turbidity, Group 2: ++
[10]; Fluconazole 50 ug/ml
  Microbes (Gram-stained smear), Group 2: Lb
  Turbidity, Group 2: ++
[10]; Fluconazole 100 ug/ml
  Microbes (Gram-stained smear), Group 2: Lb
  Turbidity, Group 2: ++
[10]; Fluconazole 200 ug/ml
  Microbes (Gram-stained smear), Group 2: Lb
  Turbidity, Group 2: ++
[10]; Fluconazole 400 ug/ml
  Microbes (Gram-stained smear), Group 2: Lb
  Turbidity, Group 2: ++
